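Cultured in 96-well plates, cells were exposed to test compound for 48 hours across five concentrations. GI50 is the concentration that inhibits growth by half. Definition used: TGI = concentration required for complete inhibition of growth.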
Experiments:
Experiment in all cases: NCI-60 cell line screen, 48 h
SNB-75 CNS = tested on: SNB-75 CNS
ACHN renal = tested on: ACHN renal
SF-539 CNS = tested on: SF-539 CNS
NCI-H23 lung = tested on: NCI-H23 lung
UO-31 renal = tested on: UO-31 renal
K-562 leukemia = tested on: K-562 leukemia
SF-268 CNS = tested on: SF-268 CNS
SNB-19 CNS = tested on: SNB-19 CNS
OVCAR-3 ovarian = tested on: OVCAR-3 ovarian
HS 578T breast = tested on: HS 578T breast
NCI-H522 lung = tested on: NCI-H522 lung
NCI-H460 lung = tested on: NCI-H460 lung
MDA-MB-435 = tested on: MDA-MB-435
HT29 colon = tested on: HT29 colon
UACC-62 melanoma = tested on: UACC-62 melanoma
MDA-MB-231 breast = tested on: MDA-MB-231 breast
M14 melanoma = tested on: M14 melanoma
SF-295 CNS = tested on: SF-295 CNS
DU-145 prostate = tested on: DU-145 prostate
SK-OV-3 ovarian = tested on: SK-OV-3 ovarian
SN12C renal = tested on: SN12C renal
IGROV1 ovarian = tested on: IGROV1 ovarian
PC-3 prostate = tested on: PC-3 prostate
SW-620 colon = tested on: SW-620 colon
A549 NSCLC = tested on: A549 NSCLC
UACC-257 melanoma = tested on: UACC-257 melanoma
T-47D breast = tested on: T-47D breast
BT-549 breast = tested on: BT-549 breast
NCI/ADR-RES ovarian = tested on: NCI/ADR-RES ovarian
RXF 393 renal = tested on: RXF 393 renal
MCF7 breast = tested on: MCF7 breast
KM12 colon = tested on: KM12 colon
HCT-15 colon = tested on: HCT-15 colon
OVCAR-4 ovarian = tested on: OVCAR-4 ovarian
SR leukemia = tested on: SR leukemia
A498 renal = tested on: A498 renal
COLO 205 colon = tested on: COLO 205 colon
HOP-92 NSCLC = tested on: HOP-92 NSCLC
OVCAR-8 ovarian = tested on: OVCAR-8 ovarian
HCT-116 colon = tested on: HCT-116 colon
LOX IMVI melanoma = tested on: LOX IMVI melanoma
RPMI-8226 leukemia = tested on: RPMI-8226 leukemia
SK-MEL-28 melanoma = tested on: SK-MEL-28 melanoma
HCC-2998 colon = tested on: HCC-2998 colon
HL-60(TB) leukemia = tested on: HL-60(TB) leukemia
SK-MEL-5 melanoma = tested on: SK-MEL-5 melanoma
SK-MEL-2 melanoma = tested on: SK-MEL-2 melanoma
MOLT-4 leukemia = tested on: MOLT-4 leukemia
CAKI-1 renal = tested on: CAKI-1 renal
EKVX NSCLC = tested on: EKVX NSCLC
TK-10 renal = tested on: TK-10 renal
U251 CNS = tested on: U251 CNS
HOP-62 NSCLC = tested on: HOP-62 NSCLC
NCI-H226 lung = tested on: NCI-H226 lung
OVCAR-5 ovarian = tested on: OVCAR-5 ovarian
CCRF-CEM leukemia = tested on: CCRF-CEM leukemia

Work on `ClCc1cccc(CSc2ncnc3c2ncn3Cc2cccc(CCl)c2)c1` yielded a GI50 (SNB-75 CNS) of 1510 nM, a TGI (SNB-75 CNS) of 2930 nM and a GI50 (ACHN renal) of 2000 nM. For the same compound, the TGI (ACHN renal) was 4390 nM, the GI50 (SF-539 CNS) was 1580 nM and the TGI (SF-539 CNS) was 4310 nM. For the same compound, the GI50 (NCI-H23 lung) was 1750 nM, the TGI (NCI-H23 lung) was 3880 nM and the GI50 (UO-31 renal) was 1740 nM. It also gave a TGI (UO-31 renal) of 3930 nM, a GI50 (K-562 leukemia) of 2710 nM and a TGI (K-562 leukemia) of 15000 nM. The GI50 (SF-268 CNS) was 1990 nM, the TGI (SF-268 CNS) was 4910 nM and the GI50 (SNB-19 CNS) was 1850 nM. For the same compound, the TGI (SNB-19 CNS) was 3460 nM, the GI50 (OVCAR-3 ovarian) was 1860 nM and the TGI (OVCAR-3 ovarian) was 3310 nM. The GI50 (HS 578T breast) was 5390 nM, the TGI (HS 578T breast) was > 100000 nM and the GI50 (NCI-H522 lung) was 1420 nM. It also gave a TGI (NCI-H522 lung) of 3420 nM, a GI50 (NCI-H460 lung) of 2040 nM and a TGI (NCI-H460 lung) of 4760 nM. For the same compound, the GI50 (MDA-MB-435) was 1710 nM, the TGI (MDA-MB-435) was 3670 nM and the GI50 (HT29 colon) was 2040 nM. It also gave a TGI (HT29 colon) of 3740 nM, a GI50 (UACC-62 melanoma) of 1760 nM and a TGI (UACC-62 melanoma) of 3460 nM. It also gave a GI50 (MDA-MB-231 breast) of 1930 nM, a TGI (MDA-MB-231 breast) of 3820 nM and a GI50 (M14 melanoma) of 1710 nM. The TGI (M14 melanoma) was 3230 nM, the GI50 (SF-295 CNS) was 2130 nM and the TGI (SF-295 CNS) was 5590 nM. For the same compound, the GI50 (DU-145 prostate) was 1850 nM, the TGI (DU-145 prostate) was 3300 nM and the GI50 (SK-OV-3 ovarian) was 2300 nM. For the same compound, the TGI (SK-OV-3 ovarian) was 4970 nM, the GI50 (SN12C renal) was 2020 nM and the TGI (SN12C renal) was 7330 nM. It also gave a GI50 (IGROV1 ovarian) of 1950 nM, a TGI (IGROV1 ovarian) of 4510 nM and a GI50 (PC-3 prostate) of 1670 nM. It also gave a TGI (PC-3 prostate) of 3340 nM, a GI50 (SW-620 colon) of 1690 nM and a TGI (SW-620 colon) of 3470 nM. The GI50 (A549 NSCLC) was 4540 nM, the TGI (A549 NSCLC) was 18400 nM and the GI50 (UACC-257 melanoma) was 1740 nM. It also gave a TGI (UACC-257 melanoma) of 3370 nM, a GI50 (T-47D breast) of 2310 nM and a TGI (T-47D breast) of 5120 nM. The GI50 (BT-549 breast) was 1320 nM, the TGI (BT-549 breast) was 2830 nM and the GI50 (NCI/ADR-RES ovarian) was 2110 nM. For the same compound, the TGI (NCI/ADR-RES ovarian) was 6830 nM, the GI50 (RXF 393 renal) was 1050 nM and the TGI (RXF 393 renal) was 2400 nM. It also gave a GI50 (MCF7 breast) of 1590 nM, a TGI (MCF7 breast) of 3300 nM and a GI50 (KM12 colon) of 1880 nM. The TGI (KM12 colon) was 3460 nM, the GI50 (HCT-15 colon) was 1710 nM and the TGI (HCT-15 colon) was 3420 nM. For the same compound, the GI50 (OVCAR-4 ovarian) was 2380 nM, the TGI (OVCAR-4 ovarian) was 10600 nM and the GI50 (SR leukemia) was 2820 nM. For the same compound, the TGI (SR leukemia) was 9890 nM, the GI50 (A498 renal) was 11100 nM and the TGI (A498 renal) was 23600 nM. The GI50 (COLO 205 colon) was 1880 nM, the TGI (COLO 205 colon) was 3430 nM and the GI50 (HOP-92 NSCLC) was 1640 nM. For the same compound, the TGI (HOP-92 NSCLC) was 3320 nM, the GI50 (OVCAR-8 ovarian) was 2110 nM and the TGI (OVCAR-8 ovarian) was 6240 nM. It also gave a GI50 (HCT-116 colon) of 1760 nM, a TGI (HCT-116 colon) of 3310 nM and a GI50 (LOX IMVI melanoma) of 1400 nM. The TGI (LOX IMVI melanoma) was 2740 nM, the GI50 (RPMI-8226 leukemia) was 1890 nM and the TGI (RPMI-8226 leukemia) was 4860 nM. It also gave a GI50 (SK-MEL-28 melanoma) of 1590 nM, a TGI (SK-MEL-28 melanoma) of 3080 nM and a GI50 (HCC-2998 colon) of 1710 nM. It also gave a TGI (HCC-2998 colon) of 3130 nM, a GI50 (HL-60(TB) leukemia) of 2260 nM and a TGI (HL-60(TB) leukemia) of 5030 nM. For the same compound, the GI50 (SK-MEL-5 melanoma) was 1560 nM, the TGI (SK-MEL-5 melanoma) was 2900 nM and the GI50 (SK-MEL-2 melanoma) was 2580 nM. For the same compound, the TGI (SK-MEL-2 melanoma) was 6810 nM, the GI50 (MOLT-4 leukemia) was 3650 nM and the TGI (MOLT-4 leukemia) was 17200 nM. For the same compound, the GI50 (CAKI-1 renal) was 1920 nM, the TGI (CAKI-1 renal) was 4340 nM and the GI50 (EKVX NSCLC) was 10100 nM. The TGI (EKVX NSCLC) was 24600 nM, the GI50 (TK-10 renal) was 1930 nM and the TGI (TK-10 renal) was 3610 nM. For the same compound, the GI50 (U251 CNS) was 1590 nM, the TGI (U251 CNS) was 3010 nM and the GI50 (HOP-62 NSCLC) was 1800 nM. It also gave a TGI (HOP-62 NSCLC) of 3330 nM, a GI50 (NCI-H226 lung) of 1660 nM and a TGI (NCI-H226 lung) of 4540 nM. It also gave a GI50 (OVCAR-5 ovarian) of 1840 nM, a TGI (OVCAR-5 ovarian) of 3990 nM and a GI50 (CCRF-CEM leukemia) of 1600 nM. It also gave a TGI (CCRF-CEM leukemia) of 6950 nM.
